{"source": "PubChem BioAssay (NCI)", "test_in_all_cases": "NCI tumour cell line growth inhibition, 48 h", "key": {"MOLT-4 leukemia": {"system": "MOLT-4 leukemia"}, "UACC-62 melanoma": {"system": "UACC-62 melanoma"}, "OVCAR-5 ovarian": {"system": "OVCAR-5 ovarian"}, "SNB-75 CNS": {"system": "SNB-75 CNS"}, "CCRF-CEM leukemia": {"system": "CCRF-CEM leukemia"}, "IGROV1 ovarian": {"system": "IGROV1 ovarian"}, "MDA-MB-435": {"system": "MDA-MB-435"}, "SR leukemia": {"system": "SR leukemia"}, "HL-60(TB) leukemia": {"system": "HL-60(TB) leukemia"}, "T-47D breast": {"system": "T-47D breast"}, "SK-MEL-28 melanoma": {"system": "SK-MEL-28 melanoma"}, "SK-OV-3 ovarian": {"system": "SK-OV-3 ovarian"}, "UACC-257 melanoma": {"system": "UACC-257 melanoma"}, "ACHN renal": {"system": "ACHN renal"}, "OVCAR-3 ovarian": {"system": "OVCAR-3 ovarian"}, "MALME-3M melanoma": {"system": "MALME-3M melanoma"}, "DU-145 prostate": {"system": "DU-145 prostate"}, "SNB-19 CNS": {"system": "SNB-19 CNS"}, "786-0 renal": {"system": "786-0 renal"}, "HCT-15 colon": {"system": "HCT-15 colon"}, "U251 CNS": {"system": "U251 CNS"}, "HS 578T breast": {"system": "HS 578T breast"}, "SF-539 CNS": {"system": "SF-539 CNS"}, "NCI-H522 lung": {"system": "NCI-H522 lung"}, "PC-3 prostate": {"system": "PC-3 prostate"}, "K-562 leukemia": {"system": "K-562 leukemia"}, "MDA-MB-231 breast": {"system": "MDA-MB-231 breast"}, "HCT-116 colon": {"system": "HCT-116 colon"}, "CAKI-1 renal": {"system": "CAKI-1 renal"}, "OVCAR-4 ovarian": {"system": "OVCAR-4 ovarian"}, "M14 melanoma": {"system": "M14 melanoma"}, "COLO 205 colon": {"system": "COLO 205 colon"}, "SK-MEL-5 melanoma": {"system": "SK-MEL-5 melanoma"}, "HT29 colon": {"system": "HT29 colon"}, "SK-MEL-2 melanoma": {"system": "SK-MEL-2 melanoma"}, "TK-10 renal": {"system": "TK-10 renal"}, "RPMI-8226 leukemia": {"system": "RPMI-8226 leukemia"}, "SN12C renal": {"system": "SN12C renal"}, "NCI-H226 lung": {"system": "NCI-H226 lung"}, "UO-31 renal": {"system": "UO-31 renal"}, "A498 renal": {"system": "A498 renal"}, "NCI/ADR-RES ovarian": {"system": "NCI/ADR-RES ovarian"}}, "note": "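Cells were grown in 96-well plates and exposed to each compound for 48 hours at five concentrations; endpoints were interpolated linearly between bracketing concentrations, or set to the highest concentration if not reached. GI50 is the concentration that inhibits growth by half. The concentration for full growth arrest is given as TGI.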", "data": [{"smiles": "Cn1cc(-c2cc3nc(-c4c[nH]c5ccc(Cl)cc45)cc(N)n3n2)c2ccccc21", "values": [{"measurement": "GI50", "setting": "MOLT-4 leukemia", "result": 1620, "unit": "nM"}, {"measurement": "TGI", "setting": "MOLT-4 leukemia", "result": 4180, "unit": "nM"}, {"measurement": "GI50", "setting": "UACC-62 melanoma", "result": 1630, "unit": "nM"}, {"measurement": "TGI", "setting": "UACC-62 melanoma", "result": 3060, "unit": "nM"}, {"measurement": "GI50", "setting": "OVCAR-5 ovarian", "result": 1570, "unit": "nM"}, {"measurement": "TGI", "setting": "OVCAR-5 ovarian", "result": 3040, "unit": "nM"}, {"measurement": "GI50", "setting": "SNB-75 CNS", "result": 1500, "unit": "nM"}, {"measurement": "TGI", "setting": "SNB-75 CNS", "result": 3240, "unit": "nM"}, {"measurement": "GI50", "setting": "CCRF-CEM leukemia", "result": 3120, "unit": "nM"}, {"measurement": "TGI", "setting": "CCRF-CEM leukemia", "result": 11200, "unit": "nM"}, {"measurement": "GI50", "setting": "IGROV1 ovarian", "result": 1570, "unit": "nM"}, {"measurement": "TGI", "setting": "IGROV1 ovarian", "result": 3130, "unit": "nM"}, {"measurement": "GI50", "setting": "MDA-MB-435", "result": 1720, "unit": "nM"}, {"measurement": "TGI", "setting": "MDA-MB-435", "result": 3150, "unit": "nM"}, {"measurement": "GI50", "setting": "SR leukemia", "result": 1660, "unit": "nM"}, {"measurement": "TGI", "setting": "SR leukemia", "result": 5100, "unit": "nM"}, {"measurement": "GI50", "setting": "HL-60(TB) leukemia", "result": 2020, "unit": "nM"}, {"measurement": "TGI", "setting": "HL-60(TB) leukemia", "result": 4750, "unit": "nM"}, {"measurement": "GI50", "setting": "T-47D breast", "result": 1840, "unit": "nM"}, {"measurement": "TGI", "setting": "T-47D breast", "result": 4140, "unit": "nM"}, {"measurement": "GI50", "setting": "SK-MEL-28 melanoma", "result": 1560, "unit": "nM"}, {"measurement": "TGI", "setting": "SK-MEL-28 melanoma", "result": 2900, "unit": "nM"}, {"measurement": "GI50", "setting": "SK-OV-3 ovarian", "result": 1910, "unit": "nM"}, {"measurement": "TGI", "setting": "SK-OV-3 ovarian", "result": 3880, "unit": "nM"}, {"measurement": "GI50", "setting": "UACC-257 melanoma", "result": 1690, "unit": "nM"}, {"measurement": "TGI", "setting": "UACC-257 melanoma", "result": 3230, "unit": "nM"}, {"measurement": "GI50", "setting": "ACHN renal", "result": 1540, "unit": "nM"}, {"measurement": "TGI", "setting": "ACHN renal", "result": 2870, "unit": "nM"}, {"measurement": "GI50", "setting": "OVCAR-3 ovarian", "result": 2080, "unit": "nM"}, {"measurement": "TGI", "setting": "OVCAR-3 ovarian", "result": 4390, "unit": "nM"}, {"measurement": "GI50", "setting": "MALME-3M melanoma", "result": 1610, "unit": "nM"}, {"measurement": "TGI", "setting": "MALME-3M melanoma", "result": 2970, "unit": "nM"}, {"measurement": "GI50", "setting": "DU-145 prostate", "result": 1840, "unit": "nM"}, {"measurement": "TGI", "setting": "DU-145 prostate", "result": 3320, "unit": "nM"}, {"measurement": "GI50", "setting": "SNB-19 CNS", "result": 1680, "unit": "nM"}, {"measurement": "TGI", "setting": "SNB-19 CNS", "result": 3150, "unit": "nM"}, {"measurement": "GI50", "setting": "786-0 renal", "result": 1450, "unit": "nM"}, {"measurement": "TGI", "setting": "786-0 renal", "result": 2830, "unit": "nM"}, {"measurement": "GI50", "setting": "HCT-15 colon", "result": 1470, "unit": "nM"}, {"measurement": "TGI", "setting": "HCT-15 colon", "result": 2910, "unit": "nM"}, {"measurement": "GI50", "setting": "U251 CNS", "result": 1700, "unit": "nM"}, {"measurement": "TGI", "setting": "U251 CNS", "result": 3290, "unit": "nM"}, {"measurement": "GI50", "setting": "HS 578T breast", "result": 1910, "unit": "nM"}, {"measurement": "TGI", "setting": "HS 578T breast", "result": 4800, "unit": "nM"}, {"measurement": "GI50", "setting": "SF-539 CNS", "result": 1640, "unit": "nM"}, {"measurement": "TGI", "setting": "SF-539 CNS", "result": 3060, "unit": "nM"}, {"measurement": "GI50", "setting": "NCI-H522 lung", "result": 1600, "unit": "nM"}, {"measurement": "TGI", "setting": "NCI-H522 lung", "result": 3230, "unit": "nM"}, {"measurement": "GI50", "setting": "PC-3 prostate", "result": 1640, "unit": "nM"}, {"measurement": "TGI", "setting": "PC-3 prostate", "result": 3140, "unit": "nM"}, {"measurement": "GI50", "setting": "K-562 leukemia", "result": 2580, "unit": "nM"}, {"measurement": "TGI", "setting": "K-562 leukemia", "result": 8070, "unit": "nM"}, {"measurement": "GI50", "setting": "MDA-MB-231 breast", "result": 1790, "unit": "nM"}, {"measurement": "TGI", "setting": "MDA-MB-231 breast", "result": 3230, "unit": "nM"}, {"measurement": "GI50", "setting": "HCT-116 colon", "result": 1620, "unit": "nM"}, {"measurement": "TGI", "setting": "HCT-116 colon", "result": 2980, "unit": "nM"}, {"measurement": "GI50", "setting": "CAKI-1 renal", "result": 1450, "unit": "nM"}, {"measurement": "TGI", "setting": "CAKI-1 renal", "result": 2910, "unit": "nM"}, {"measurement": "GI50", "setting": "OVCAR-4 ovarian", "result": 1910, "unit": "nM"}, {"measurement": "TGI", "setting": "OVCAR-4 ovarian", "result": 4150, "unit": "nM"}, {"measurement": "GI50", "setting": "M14 melanoma", "result": 1680, "unit": "nM"}, {"measurement": "TGI", "setting": "M14 melanoma", "result": 3140, "unit": "nM"}, {"measurement": "GI50", "setting": "COLO 205 colon", "result": 1800, "unit": "nM"}, {"measurement": "TGI", "setting": "COLO 205 colon", "result": 3350, "unit": "nM"}, {"measurement": "GI50", "setting": "SK-MEL-5 melanoma", "result": 1670, "unit": "nM"}, {"measurement": "TGI", "setting": "SK-MEL-5 melanoma", "result": 3100, "unit": "nM"}, {"measurement": "GI50", "setting": "HT29 colon", "result": 1560, "unit": "nM"}, {"measurement": "TGI", "setting": "HT29 colon", "result": 2980, "unit": "nM"}, {"measurement": "GI50", "setting": "SK-MEL-2 melanoma", "result": 1810, "unit": "nM"}, {"measurement": "TGI", "setting": "SK-MEL-2 melanoma", "result": 3540, "unit": "nM"}, {"measurement": "GI50", "setting": "TK-10 renal", "result": 1260, "unit": "nM"}, {"measurement": "TGI", "setting": "TK-10 renal", "result": 2580, "unit": "nM"}, {"measurement": "GI50", "setting": "RPMI-8226 leukemia", "result": 2620, "unit": "nM"}, {"measurement": "TGI", "setting": "RPMI-8226 leukemia", "result": 7210, "unit": "nM"}, {"measurement": "GI50", "setting": "SN12C renal", "result": 1710, "unit": "nM"}, {"measurement": "TGI", "setting": "SN12C renal", "result": 3170, "unit": "nM"}, {"measurement": "GI50", "setting": "NCI-H226 lung", "result": 1890, "unit": "nM"}, {"measurement": "TGI", "setting": "NCI-H226 lung", "result": 5170, "unit": "nM"}, {"measurement": "GI50", "setting": "UO-31 renal", "result": 1430, "unit": "nM"}, {"measurement": "TGI", "setting": "UO-31 renal", "result": 2730, "unit": "nM"}, {"measurement": "GI50", "setting": "A498 renal", "result": 1600, "unit": "nM"}, {"measurement": "TGI", "setting": "A498 renal", "result": 3370, "unit": "nM"}, {"measurement": "GI50", "setting": "NCI/ADR-RES ovarian", "result": 2110, "unit": "nM"}, {"measurement": "TGI", "setting": "NCI/ADR-RES ovarian", "result": 4730, "unit": "nM"}]}]}
